According to publication PMC3863468 (BioMed Research International, 2013):
Blank lines part the entries; values can stand above or below the compound they belong to.

How the values were obtained:
[1] = Pharmacokinetic experiment: serum imatinib and N-desmethyl imatinib by HPLC after oral imatinib with or without apigenin; details: for AUC(0–t) / AUC(0–∞) / C max / CLz/F / MRT(0–t) / MRT(0–∞) / T max / Vz/F / t (1/2)z: then single oral 30 mg/kg imatinib, rat serum, n = 5
Procedure: HPLC system (Agilent 1100) was equipped with quaternary pump, on-line vacuum degasser, autosampler, column compartment, diode array detector, and Agilent Chem Station Rev A.10.02. […] The detection wavelength was 282 nm, and the injection volume was 20.0 μL.
The serum samples were prepared using liquid-liquid extraction technique. A 300 μL aliquot of the serum sample was taken in a 10 mL glass test tube, and on that 20 μL of IS (100 μg/mL) was spiked and 150 μL of sodium hydroxide solution (0.01 moL/L) was added. After vortex mixing for 30 s, 3 mL of ethyl acetate was added, and the mixture was vortexed for 1 min and then centrifuged at 3000 ×g for 5 min. The organic layer was transferred into another 5 mL tube and evaporated to dryness under a stream of nitrogen gas at 40°C. The residue was reconstituted in 100 μL of mobile phase and vortex-mixed for 1 min, and 20 μL of aliquot was injected into the HPLC system for analysis.
Experimental values were expressed as x-±s . Statistical analyses of main pharmacokinetic parameters were performed by Student's unpaired test using SPSS 16.0 software. A value of P < 0.05 was considered to be significant between two groups.

[2] = cited from earlier work
[3] = group B: apigenin 165 mg/kg for 15 days
[4] = group C: single dose apigenin 165 mg/kg
[5] = group D (single dose apigenin 252 mg/kg) vs group B, rats, 30 mg/kg imatinib
[6] = group D: single dose apigenin 252 mg/kg
[7] = short-term 165 mg/kg apigenin (group C), printed comparison with group B, rats, 30 mg/kg imatinib

- AUC(0–t) ([1]; group A: control (0.5% CMC-Na)): 5977 ± 1626 ng·h/mL
- AUC(0–∞) ([1]; group A: control (0.5% CMC-Na)): 6827 ± 2595 ng·h/mL
- C max ([1]; group A: control (0.5% CMC-Na)): 678 ± 147 ng/mL
- CLz/F ([1]; group A: control (0.5% CMC-Na)): 81.9 ± 29.7 mL/min/kg
- MRT(0–t) ([1]; group A: control (0.5% CMC-Na)): 7.085 ± 1.135 h
- MRT(0–∞) ([1]; group A: control (0.5% CMC-Na)): 9.718 ± 4.636 h
- T max ([1]; group A: control (0.5% CMC-Na)): 3.6 ± 0.894 h
- Vz/F ([1]; group A: control (0.5% CMC-Na)): 32.8 ± 10.3 L/kg
- t (1/2)z ([1]; group A: control (0.5% CMC-Na)): 5.495 ± 3.92 h
- main pharmacokinetic parameters, difference between group A and group B ([1]; group B (apigenin 165 mg/kg for 15 days) vs group A (control), rats): no great differences
- AUC(0–t) [1, 3]: 6335 ± 1105 ng·h/mL
- AUC(0–∞) [1, 3]: 6672 ± 797 ng·h/mL
- C max [1, 3]: 797 ± 73 ng/mL
- CLz/F [1, 3]: 75.9 ± 9.87 mL/min/kg
- MRT(0–t) [1, 3]: 6.573 ± 0.544 h
- MRT(0–∞) [1, 3]: 7.504 ± 0.189 h
- T max [1, 3]: 4.0 ± 0.003 h
- Vz/F [1, 3]: 26.8 ± 4.49 L/kg
- t (1/2)z [1, 3]: 4.083 ± 0.436 h
- AUC(0–t) [1, 4]: 4797 ± 602 ng·h/mL
- AUC(0–∞) [1, 4]: 5050 ± 797 ng·h/mL
- C max [1, 4]: 547 ± 91 ng/mL
- CLz/F [1, 4]: 101 ± 16.5 mL/min/kg
- MRT(0–t) [1, 4]: 7.227 ± 0.525 h
- MRT(0–∞) [1, 4]: 8.397 ± 1.545 h
- T max [1, 4]: 4.0 ± 0.005 h
- Vz/F [1, 4]: 40.7 ± 12.8 L/kg
- t (1/2)z [1, 4]: 4.906 ± 2.093 h
- C max reduced compared with group B [1, 5]: 19.82%
- V z/F decrease compared with group B [1, 5]: 62.10%
- AUC(0–t) [1, 6]: 5262 ± 890 ng·h/mL
- AUC(0–∞) [1, 6]: 5545 ± 814 ng·h/mL
- C max [1, 6]: 639 ± 130 ng/mL
- CLz/F [1, 6]: 91.8 ± 13.9 mL/min/kg
- MRT(0–t) [1, 6]: 7.326 ± 0.53 h
- MRT(0–∞) [1, 6]: 8.679 ± 1.301 h
- T max [1, 6]: 3.8 ± 0.447 h
- Vz/F [1, 6]: 43.5 ± 16.1 L/kg
- t (1/2)z [1, 6]: 5.376 ± 1.495 h
- AUC(0−t) increased in comparison with group B [1, 7]: 19.7%
- C max increased in comparison with group B [1, 7]: 19.3%
SMILES: Cc1ccc(NC(=O)c2ccc(CN3CCNCC3)cc2)cc1Nc1nccc(-c2cccnc2)n1 [N-desmethyl imatinib]

- dose dependence of effect on imatinib ([1]; 252 mg/kg vs 165 mg/kg short-time apigenin, rats): not dose dependent
- effect on the metabolism of imatinib in vivo ([1]; long-term oral administration of apigenin (165 mg/kg for 15 days), rats): accelerated
- effect on the metabolism of imatinib in vivo ([1]; single dose of apigenin, rats): inhibited
SMILES: O=c1cc(-c2ccc(O)cc2)oc2cc(O)cc(O)c12 [apigenin, reference compound]

- V z/F decreased (printed: in group B) ([1]; male, Sprague-Dawley, rat, in vivo, 30 mg/kg): 55.1%
- AUC(0-t) ([1]; male, Sprague-Dawley, rat, in vivo, po, 30 mg/kg, AUC(0–t)): 90600 ± 11300 ng·h/mL
- AUC(0-inf) ([1]; male, Sprague-Dawley, rat, in vivo, po, 30 mg/kg, AUC(0–∞)): 91000 ± 11600 ng·h/mL
- Cmax ([1]; male, Sprague-Dawley, rat, in vivo, po, 30 mg/kg, C max): 12100 ± 2020 ng/mL
- Tmax ([1]; male, Sprague-Dawley, rat, in vivo, po, 30 mg/kg, T max): 3 ± 1 h
SMILES: Cc1ccc(NC(=O)c2ccc(CN3CCN(C)CC3)cc2)cc1Nc1nccc(-c2cccnc2)n1 [imatinib, reference compound]
- oral bioavailability [2]: ~97%
